Patent US6464958B1, “Process for the preparation of suspensions of drug particles for inhalation delivery” (Chiesi Farmaceutici S.p.A., priority 1998, dated 2002)
Where two headings read alike, the source gives them in different places.

What was measured:
[1] = cited from earlier work; for stability after gamma-irradiation: 60Co, 1 to 4 Mrad; for degradation degree: micronised steroids, radiation doses 4.5 and 15 Mrad
[2] = HPLC purity and related substances of micronised BDP after gamma-irradiation; format: physicochemical
Description: (§1) About 600 g of micronised BDP was stored in a 20 1 polythene container after having replaced air by nitrogen, the container was in turn sealed in two Polikem bag. The product was subjected to gamma-irradiation at 2 to 9 KGy. After the exposure, the BDP purity and the amount of related substances were determined by HPLC. On the batch subjected to 2 kGy dose, the particle size as well as the loss of weight were also determined by Malvern analysis and TGA respectively, in comparison to the non-irradiated product.

[3] = Particle size of micronised BDP powder by Malvern analysis; format: physicochemical
Description: as §1

[4] = Loss of weight by TGA of micronised BDP after gamma-irradiation; format: physicochemical
Description: as §1

For `C[C@]12CCC(=O)C=C1CC[C@@H]1[C@@H]2[C@@H](O)C[C@@]2(C)[C@H]1CC[C@]2(O)C(=O)COC(=O)CCC(=O)O` [hydrocortisone sodium succinate], the percentage of degradation ([1]; powder corticosteroids sterilised with 60Co) is listed as 1.4 %/Mrad.
In the case of `CCC(=O)OCC(=O)[C@@]1(OC(=O)CC)[C@@H](C)C[C@H]2[C@@H]3CCC4=CC(=O)C=C[C@]4(C)[C@@]3(Cl)[C@@H](O)C[C@@]21C` [Irr. BDP, beclomethasone dipropionate], the “Purity (%)” value ([2]; gamma-irradiation 2 KGy) is reported as 99.6%, the “Related substances (%)” value ([2]; gamma-irradiation 2 KGy) is reported as 0.4% and the “Purity (%)” value ([2]; gamma-irradiation 3.17 KGy) is reported as 99.6%. For the same compound, the “Related substances (%)” value ([2]; gamma-irradiation 3.17 KGy) was 0.4%, the “Purity (%)” value ([2]; gamma-irradiation 9.08 KGy) was 99.3% and the “Related substances (%)” value ([2]; gamma-irradiation 9.08 KGy) was 0.7%. For the same compound, the “Particle size distribution (μm, Malvern) d (0.1)” value ([3]; gamma-irradiation 2 KGy) was 0.48 μm, the “Particle size distribution (μm, Malvern) d (0.5)” value ([3]; gamma-irradiation 2 KGy) was 1.81 μm and the “Particle size distribution (μm, Malvern) d (0.9)” value ([3]; gamma-irradiation 2 KGy) was 5.73 μm. The “Loss of weight (%, TGA)” value ([4]; gamma-irradiation 2 KGy) was 0.13%.
In the case of `CCC(=O)OCC(=O)[C@@]1(OC(=O)CC)[C@@H](C)C[C@H]2[C@@H]3CCC4=CC(=O)C=C[C@]4(C)[C@@]3(Cl)[C@@H](O)C[C@@]21C` [BDP, beclomethasone dipropionate], the stability after gamma-irradiation ([1]; powder) is given as “stable immediately after irradiation”, the stability after gamma-irradiation ([1]; solution in methanol or propylene glycol) is given as “quick degradation” and the “stability after exposure to gamma-irradiation” value ([2]; 2 to 9 KGy) is given as “stable”.
For `C[C@]12CCC(=O)C=C1CC[C@@H]1[C@@H]2[C@@H](O)C[C@@]2(C)[C@H]1CC[C@]2(O)C(=O)CO` [hydrocortisone], the degradation degree [1] is listed as “about 2.4%”.
In the case of `CCC(=O)OCC(=O)[C@@]1(OC(=O)CC)[C@@H](C)C[C@H]2[C@@H]3CCC4=CC(=O)C=C[C@]4(C)[C@@]3(Cl)[C@@H](O)C[C@@]21C` [Non-irr. BDP, beclomethasone dipropionate], the “Purity (%)” value ([2]; non-irradiated) is reported as 99.7%, the “Related substances (%)” value ([2]; non-irradiated) is reported as 0.3% and the “Particle size distribution (μm, Malvern) d (0.1)” value ([3]; non-irradiated powder) is reported as 0.49 μm. The “Particle size distribution (μm, Malvern) d (0.5)” value ([3]; non-irradiated powder) was 1.91 μm, the “Particle size distribution (μm, Malvern) d (0.9)” value ([3]; non-irradiated powder) was 5.98 μm and the “Loss of weight (%, TGA)” value ([4]; non-irradiated micronised powder) was 0.12%.
In the case of `C[C@]12C=CC(=O)C=C1CC[C@@H]1[C@@H]2[C@@H](O)C[C@@]2(C)[C@H]1CC[C@]2(O)C(=O)CO` [prednisolone], the degradation degree [1] is listed as “about 2.4%”.
